US6926763B2, “Purine and isosteric antibacterial compounds” (GLSynthesis, Inc., priority 2002, dated 2005)
Converted amounts (≈) assume the structure as drawn.

Experiments:
E.c. pol IIIE = E.c. pol IIIE (Escherichia coli, UniProt P10443); test: biochemical
Procedure: (§1) The ability of a test compound to inhibit the activity of DNA pol IIIC or pol IIIE enzymes can be tested by using a DNA polymerase assay as described, for example, in Barnes and Brown, Nucl. […] This rapid screening method can use natural or recombinant DNA pol III enzymes in a standard DNA polymerase activity assay. By including a test compound in a side-by-side assay with a control, the effect of the test compound on polymerase activity can be assessed.
(§2) DNA pol III activity was assayed as described in Barnes et al., Nucl.
(§3) Purified pol IIIC or pol IIIE was added to a buffered solution containing Mg^2+, DTT, glycerol, nicked calf thymus DNA, saturating concentrations of dATP, dCTP, dTTP and [^3H]-dTTP. Reaction mixtures were incubated at 30° C. for 10 min, quenched and filtered, and radioactivity in the acid-insoluble material measured by scintillation counting. Experiments were done in triplicate. Inhibitors were assayed by addition of several dilutions of a stock solution of inhibitor (DMSO or water, depending on solubility) before enzyme addition. […] The truncated assay, i.e., exclusion of the competitive substrate dGTP allows for the direct determination of apparent inhibitor constants (Ki) in this assay system.

B.s. pol IIIC = B.s. pol IIIC (Bacillus subtilis, UniProt P13267); test: biochemical; type: biochemical
Chain of B.s. pol IIIC (P13267 whole entry): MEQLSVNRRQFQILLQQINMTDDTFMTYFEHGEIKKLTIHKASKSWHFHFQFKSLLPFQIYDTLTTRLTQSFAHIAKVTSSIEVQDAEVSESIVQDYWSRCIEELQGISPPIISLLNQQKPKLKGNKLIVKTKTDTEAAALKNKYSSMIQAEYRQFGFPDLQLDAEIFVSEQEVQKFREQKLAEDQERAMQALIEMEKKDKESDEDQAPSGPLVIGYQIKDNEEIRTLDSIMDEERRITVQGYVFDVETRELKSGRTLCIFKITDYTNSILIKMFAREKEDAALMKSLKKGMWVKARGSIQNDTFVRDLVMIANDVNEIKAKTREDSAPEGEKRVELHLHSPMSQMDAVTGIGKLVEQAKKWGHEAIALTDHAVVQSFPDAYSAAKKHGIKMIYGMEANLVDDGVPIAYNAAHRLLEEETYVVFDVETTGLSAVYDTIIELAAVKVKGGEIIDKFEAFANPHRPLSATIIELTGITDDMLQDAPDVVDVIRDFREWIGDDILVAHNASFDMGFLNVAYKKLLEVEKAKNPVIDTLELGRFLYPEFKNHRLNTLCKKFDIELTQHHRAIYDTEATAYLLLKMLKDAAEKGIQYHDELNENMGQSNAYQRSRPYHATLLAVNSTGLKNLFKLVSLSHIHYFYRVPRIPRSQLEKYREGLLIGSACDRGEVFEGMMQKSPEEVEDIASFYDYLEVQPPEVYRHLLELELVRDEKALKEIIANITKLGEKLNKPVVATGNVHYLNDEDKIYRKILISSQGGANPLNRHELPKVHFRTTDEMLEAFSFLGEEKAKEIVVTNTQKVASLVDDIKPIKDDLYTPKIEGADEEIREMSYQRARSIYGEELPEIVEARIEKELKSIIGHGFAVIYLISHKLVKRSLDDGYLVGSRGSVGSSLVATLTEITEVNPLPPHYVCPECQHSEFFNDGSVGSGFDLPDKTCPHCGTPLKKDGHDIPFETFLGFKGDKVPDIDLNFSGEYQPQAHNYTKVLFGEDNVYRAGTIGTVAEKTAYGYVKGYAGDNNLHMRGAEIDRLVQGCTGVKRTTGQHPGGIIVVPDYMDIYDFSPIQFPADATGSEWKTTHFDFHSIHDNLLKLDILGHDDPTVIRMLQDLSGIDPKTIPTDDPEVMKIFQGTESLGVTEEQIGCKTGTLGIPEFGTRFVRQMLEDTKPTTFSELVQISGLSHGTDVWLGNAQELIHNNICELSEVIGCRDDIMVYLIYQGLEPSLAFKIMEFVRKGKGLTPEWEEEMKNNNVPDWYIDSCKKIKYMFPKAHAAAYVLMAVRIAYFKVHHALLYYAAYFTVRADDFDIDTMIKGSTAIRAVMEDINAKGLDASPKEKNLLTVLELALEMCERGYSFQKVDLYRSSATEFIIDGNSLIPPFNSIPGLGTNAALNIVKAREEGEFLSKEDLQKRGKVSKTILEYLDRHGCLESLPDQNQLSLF
Procedure: as §1, §2, §3

B.s. pol IIIE = B.s. pol IIIE (Bacillus subtilis, UniProt O34623); test: biochemical; type: biochemical
Chain of B.s. pol IIIE (O34623 whole entry): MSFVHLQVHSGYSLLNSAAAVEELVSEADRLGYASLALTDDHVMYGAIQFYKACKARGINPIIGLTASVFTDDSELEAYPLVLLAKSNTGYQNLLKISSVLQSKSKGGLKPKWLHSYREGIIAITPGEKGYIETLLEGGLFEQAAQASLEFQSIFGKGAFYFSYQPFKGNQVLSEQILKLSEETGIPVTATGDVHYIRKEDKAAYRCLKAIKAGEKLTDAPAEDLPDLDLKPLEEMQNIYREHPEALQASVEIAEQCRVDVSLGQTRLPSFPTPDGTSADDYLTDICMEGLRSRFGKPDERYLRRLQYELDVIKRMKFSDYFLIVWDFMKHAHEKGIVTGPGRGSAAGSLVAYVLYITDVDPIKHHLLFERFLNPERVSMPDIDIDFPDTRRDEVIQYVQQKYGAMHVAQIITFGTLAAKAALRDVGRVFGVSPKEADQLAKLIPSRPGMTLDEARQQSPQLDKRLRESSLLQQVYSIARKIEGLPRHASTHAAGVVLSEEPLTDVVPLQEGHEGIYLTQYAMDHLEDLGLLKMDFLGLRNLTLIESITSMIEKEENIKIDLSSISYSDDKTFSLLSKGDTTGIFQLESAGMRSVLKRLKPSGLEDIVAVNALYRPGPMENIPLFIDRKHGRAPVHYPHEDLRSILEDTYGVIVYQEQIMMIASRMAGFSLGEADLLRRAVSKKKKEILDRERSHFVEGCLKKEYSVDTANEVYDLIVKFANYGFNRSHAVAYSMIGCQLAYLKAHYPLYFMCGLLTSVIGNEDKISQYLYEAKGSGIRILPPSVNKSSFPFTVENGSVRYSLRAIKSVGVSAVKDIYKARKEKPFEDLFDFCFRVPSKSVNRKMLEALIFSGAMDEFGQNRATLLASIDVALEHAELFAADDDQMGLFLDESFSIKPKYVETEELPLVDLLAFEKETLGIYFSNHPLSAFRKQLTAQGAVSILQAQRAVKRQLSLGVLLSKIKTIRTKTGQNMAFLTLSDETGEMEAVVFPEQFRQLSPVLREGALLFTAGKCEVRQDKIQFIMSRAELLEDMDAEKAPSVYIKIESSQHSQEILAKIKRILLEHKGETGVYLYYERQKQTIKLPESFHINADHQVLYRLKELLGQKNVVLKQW
Procedure: as §1, §2, §3

Enterococcus fecalis = test: Inhibition of bacterial growth (agar plate MIC), E. fecalis; type: cell-based; settings: Enterococcus; agar plates, 37° C., 24 hours
Procedure: (§4) Antimicrobial efficacy may be determined by standard methods of microbial culture in growth medium or on plates of agar supplemented with appropriate growth media. For example, microbes, e.g., mycoplasmata or Gram-positive or Gram-negative bacteria, are grown in the presence of serial dilutions of compounds in an appropriate vehicle, and, after a suitable period of growth, the microbial density is measured by visual or instrumental means. The concentration of compound at which no growth occurs is the minimum inhibitory concentration (MIC) of the compound. Test compounds with an appropriate level of growth inhibition are good candidate therapeutics for further evaluation.
(§5) Each compound was assayed against a panel of Gram-positive Bacilli, Enterococci, and Staphylococci, and Gram-negative Escherichia coli, grown in appropriate plate media solidified with 1.3% agar-agar. […] One tenth mL of diluted bacteria containing 500-1000 colony-forming units (CFU) were plated and spread, and the plates were incubated at 37° C. for 24 hours. MIC (minimum inhibitory concentration) was equivalent to the lowest concentration at which growth, i.e. colony formation, was not observed.

MRSA (B42876) = test: Inhibition of bacterial growth (agar plate MIC), MRSA (B42876); type: cell-based, methicillin-resistant S.a.; settings: Staphylococcus aureus, MRSA; agar plates, 37° C., 24 hours
Procedure: as §4, §5

Enterococcus fecium = test: Inhibition of bacterial growth (agar plate MIC), E. fecium; type: cell-based; settings: Enterococcus; agar plates, 37° C., 24 hours
Procedure: as §4, §5

in vitro = in vitro ADME; settings: human, Caco-2
Text: Table 2 summarizes the results of cell membrane permeability assays of representative compounds of the invention. The assay utilizes CaCo2 cell culture monolayers, described by Artursson and Kalsson, Biochem. Biophys. Res.

Bacillus subtilis = test: Inhibition of bacterial growth (agar plate MIC), B.s.; type: cell-based; settings: Bacillus subtilis; agar plates, 37° C., 24 hours
Procedure: as §4, §5

Chain of E.c. pol IIIE (P10443 whole entry): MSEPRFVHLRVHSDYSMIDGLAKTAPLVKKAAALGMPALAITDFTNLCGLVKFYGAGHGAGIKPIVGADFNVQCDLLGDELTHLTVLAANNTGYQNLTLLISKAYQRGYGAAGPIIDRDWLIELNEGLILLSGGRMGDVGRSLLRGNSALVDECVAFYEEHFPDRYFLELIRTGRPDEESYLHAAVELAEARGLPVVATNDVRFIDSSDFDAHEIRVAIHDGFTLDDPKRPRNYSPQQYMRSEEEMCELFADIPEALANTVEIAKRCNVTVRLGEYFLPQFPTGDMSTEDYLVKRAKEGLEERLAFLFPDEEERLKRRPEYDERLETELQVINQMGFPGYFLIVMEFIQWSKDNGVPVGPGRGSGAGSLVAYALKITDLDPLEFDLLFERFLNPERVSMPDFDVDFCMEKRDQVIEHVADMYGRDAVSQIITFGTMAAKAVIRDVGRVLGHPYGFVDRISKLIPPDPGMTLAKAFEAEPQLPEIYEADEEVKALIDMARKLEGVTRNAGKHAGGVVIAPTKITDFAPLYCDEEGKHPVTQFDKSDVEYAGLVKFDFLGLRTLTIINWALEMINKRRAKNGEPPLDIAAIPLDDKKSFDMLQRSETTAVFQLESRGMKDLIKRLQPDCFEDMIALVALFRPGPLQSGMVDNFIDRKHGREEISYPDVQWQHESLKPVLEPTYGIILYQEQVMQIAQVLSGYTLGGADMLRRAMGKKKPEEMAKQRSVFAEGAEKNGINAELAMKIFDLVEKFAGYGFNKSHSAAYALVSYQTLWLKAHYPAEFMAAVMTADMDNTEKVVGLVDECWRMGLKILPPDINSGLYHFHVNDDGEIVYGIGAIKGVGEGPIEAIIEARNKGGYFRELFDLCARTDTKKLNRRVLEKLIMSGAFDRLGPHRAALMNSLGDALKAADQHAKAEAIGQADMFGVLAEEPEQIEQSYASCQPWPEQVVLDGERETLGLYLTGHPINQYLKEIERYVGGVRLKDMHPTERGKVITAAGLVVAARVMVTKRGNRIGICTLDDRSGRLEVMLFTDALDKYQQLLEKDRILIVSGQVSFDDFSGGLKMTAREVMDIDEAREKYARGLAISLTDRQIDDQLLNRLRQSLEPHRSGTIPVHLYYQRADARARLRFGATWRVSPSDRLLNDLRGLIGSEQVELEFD

Compound	Ki (E.c. pol IIIE) [µM]	Ki (B.s. pol IIIC) [nM]	Ki (B.s. pol IIIE) [µM]	MIC (Enterococcus fecalis) [µg/mL]	MIC (MRSA (B42876)) [µg/mL]	MIC (Enterococcus fecium) [µg/mL]	Papp (in vitro) [×10⁻⁶ cm/s]	Ki, E.c. pol IIIE (E.c. pol IIIE; truncated assay without dGTP, apparent Ki)	MIC (Bacillus subtilis) [µg/mL]
COCCCCCn1cnc2cc(NCc3ccc(Cl)c(Cl)c3)[nH]c(=O)c21 [Compound 3, 2-(3,4-Dichlorobenzylamino)-6-oxo-7-(5-methoxypentyl)-3-deazapurine]	81	160	0.42	5 (≈ 12.2 µM)	2.5 (≈ 6.11 µM)	1.25 (≈ 3.05 µM)	13.8		
CCc1cc(Nc2cc3ncn(CCCCCOC)c3c(=O)[nH]2)ccc1C [Compound 17, 2-(3-Ethyl-4-methylphenylamino)-6-oxo-7-(5-methoxypentyl)-3-deazapurine]		690	490	> 80	2.5 (≈ 6.78 µM)	2.5 (≈ 6.78 µM)	39.6	inact	1.25 (≈ 3.39 µM)
